{"source": "paper PMC8151276", "about": "“An Integrated Approach toward NanoBRET Tracers for Analysis of GPCR Ligand Engagement” (Molecules, 2021)", "assay_type_in_all_cases": "binding", "key": {"CXCR1": {"target": "T1, CXCR1 (Homo sapiens, UniProt P25024)", "T1 construct": "purchased Promega (in-house HiBiT-GPCR construct library, NanoBRET)", "T1 sequence (P25024 1-350)": "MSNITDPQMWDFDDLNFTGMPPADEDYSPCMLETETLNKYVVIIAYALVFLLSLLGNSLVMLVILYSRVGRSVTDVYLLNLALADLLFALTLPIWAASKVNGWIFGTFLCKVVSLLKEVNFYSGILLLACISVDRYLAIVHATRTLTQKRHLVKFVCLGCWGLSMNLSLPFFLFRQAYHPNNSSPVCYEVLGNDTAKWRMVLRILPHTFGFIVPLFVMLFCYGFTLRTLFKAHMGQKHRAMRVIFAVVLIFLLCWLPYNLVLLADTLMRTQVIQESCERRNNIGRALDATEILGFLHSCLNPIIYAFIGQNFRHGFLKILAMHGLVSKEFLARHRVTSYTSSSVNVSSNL", "experiment": "NanoBRET screen HiBiT-CXCR1 in HEK293", "procedure": "(§1) Each tracer candidate was screened across the entire library of HiBiT-GPCR constructs using NanoBRET as the detection modality. As depicted in Figure 4A, the specificity of interactions was evaluated through decrease in BRET due to competitive displacement of a bound tracer by excess parental compound. Each tracer was analyzed for binding to each HiBiT-GPCR fusion in the absence and in the presence of competing parental compound. Briefly, HEK293 cells were transfected with HiBiT-GPCR constructs diluted into promoterless DNA to reduce expression and maximize translocation to the cell surface. Each tracer candidate was then screened at concentrations of 1 μM and 0.1 μM across cells expressing these fusions. Cells were treated for 1.5 h with tracer either alone or in the presence of 20 μM competing parental compound (i.e., control). BRET was measured upon addition of purified LgBiT and subsequent complementation with HiBiT genetically fused to a GPCR. The specificity of interactions was assessed through a decrease in BRET signal due to competitive displacement of the bound tracer. To further gauge the robustness of these interactions, the fold response over the control (i.e., BRETtracer/BRETcontrol) was calculated. We chose a 1.5-fold response, which translates to ≥7-fold signal over noise as the minimal threshold required to score an interaction as positive. […]. Below we highlight the screening results obtained for our exemplary fluorescent tracers based on Clozapine, Amitriptyline and AZD1283.\n(§2) HiBiT-GPCR DNA constructs were diluted in 10 mM Tris pH 8 to a final concentration of 0.01 μg/μL, arrayed in 96-well plates and stored at −20 °C. For transfection, HEK293 cells were suspended in Opti-MEM (without phenol red) supplemented with 2% fetal bovine serum (Seradigm) and 100 units/mL penicillin–streptomycin (Gibco) at a final concentration of 220,000 cells/mL and dispensed into white 96-well plates at 90 μL/well. Subsequent transfections and screens were carried using an Agilent Bravo Automated Liquid Handling Platform. First, the 96-well HiBiT DNA arrays were diluted 25-fold in Opti-MEM (without serum or phenol red) to a final concentration of 0.0004 μg/μL and 20 μL of the diluted DNAs were transferred into new 96-well plates. Next, promoterless carrier DNA (1 μg/μL) was diluted 25-fold (0.04 μg/μL) and then dispensed into the diluted arrays at 20 μL/well. Following brief mixing, Viafect transfection reagent (Promega) diluted 16-fold into Opti-MEM was dispensed into the plates at 40 μL/well. After mixing by pipetting, plates were incubated for 10 min on the pipetting station deck. The DNA-transfection reagent complexes were then added to plates containing cells. To facilitate the screen, 10 μL of DNA-transfection reagent complexes were added in duplicates to the top 4 and bottom 4 rows, resulting in two identical 48-well arrays per plate. Plates with transfected cells were incubated for 18–20 h at 37 °C/5% CO2. A screen of each tracer across the entire library using two different concentrations requires duplicate plates of transfected cells. Depending on the number of tracers being screened, transfections can be scaled up using the same ratios. The next day, for each tracer, four 20× screening solutions in tracer dilution buffer (Promega) were prepared: two duplicates at final concentration of 20 μM and two duplicates at a final concentration of 2 μM. A competing unmodified compound was added to one of each duplicate at a final concentration of 400 μM. The four resulting solutions were diluted 4-fold in Opti-MEM without serum or phenol red to generate 5× solutions (5 µM and 0.5 µM tracer +/− 100 μM competing compound). To screen the library, a BioTek MultiFlo FX liquid dispenser was used to dispense 22.5 µL of tracer solution to the top 4 rows and 22.5 µL tracer + competing compound solution to the 4 bottom rows. Plates were briefly mixed on an orbital shaker and incubated for 1.5 h at room temperature. […]"}, "DRD5": {"target": "T2, DRD5 (Homo sapiens, UniProt P21918)", "T2 construct": "purchased Promega (in-house HiBiT-GPCR construct library, NanoBRET)", "T2 sequence (P21918 whole entry)": "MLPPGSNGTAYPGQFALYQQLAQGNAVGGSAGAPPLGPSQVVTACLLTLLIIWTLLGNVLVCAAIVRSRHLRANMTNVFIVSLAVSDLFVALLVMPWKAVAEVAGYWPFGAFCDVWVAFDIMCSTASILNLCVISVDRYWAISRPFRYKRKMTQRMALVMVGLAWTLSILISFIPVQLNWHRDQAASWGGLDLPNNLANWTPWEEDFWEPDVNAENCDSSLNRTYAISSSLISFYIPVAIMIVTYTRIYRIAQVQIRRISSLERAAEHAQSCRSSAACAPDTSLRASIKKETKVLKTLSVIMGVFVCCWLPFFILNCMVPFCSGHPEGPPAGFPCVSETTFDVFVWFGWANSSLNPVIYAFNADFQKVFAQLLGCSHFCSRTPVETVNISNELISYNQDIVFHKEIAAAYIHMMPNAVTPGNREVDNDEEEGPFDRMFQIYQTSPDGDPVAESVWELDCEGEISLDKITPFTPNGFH", "experiment": "NanoBRET screen HiBiT-DRD5 in HEK293", "procedure": "as §1, §2"}, "AVPR2": {"target": "T3, AVPR2 (Homo sapiens, UniProt P30518)", "T3 construct": "purchased Promega (in-house HiBiT-GPCR construct library, NanoBRET)", "T3 sequence (P30518 whole entry)": "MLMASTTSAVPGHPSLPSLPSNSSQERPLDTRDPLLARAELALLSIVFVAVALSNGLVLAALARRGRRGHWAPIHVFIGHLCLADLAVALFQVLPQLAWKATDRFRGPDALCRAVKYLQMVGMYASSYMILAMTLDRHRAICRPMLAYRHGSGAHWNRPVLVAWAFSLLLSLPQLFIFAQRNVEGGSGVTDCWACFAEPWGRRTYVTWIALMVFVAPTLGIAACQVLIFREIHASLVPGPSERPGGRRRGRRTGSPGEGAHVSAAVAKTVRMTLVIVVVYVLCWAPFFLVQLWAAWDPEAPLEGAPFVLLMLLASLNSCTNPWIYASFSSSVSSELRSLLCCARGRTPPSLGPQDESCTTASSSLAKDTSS", "experiment": "NanoBRET screen HiBiT-AVPR2 in HEK293", "procedure": "as §1, §2"}, "PTGER4": {"target": "T4, PTGER4 (Homo sapiens, UniProt P35408)", "T4 construct": "purchased Promega (in-house HiBiT-GPCR construct library, NanoBRET)", "T4 sequence (P35408 whole entry)": "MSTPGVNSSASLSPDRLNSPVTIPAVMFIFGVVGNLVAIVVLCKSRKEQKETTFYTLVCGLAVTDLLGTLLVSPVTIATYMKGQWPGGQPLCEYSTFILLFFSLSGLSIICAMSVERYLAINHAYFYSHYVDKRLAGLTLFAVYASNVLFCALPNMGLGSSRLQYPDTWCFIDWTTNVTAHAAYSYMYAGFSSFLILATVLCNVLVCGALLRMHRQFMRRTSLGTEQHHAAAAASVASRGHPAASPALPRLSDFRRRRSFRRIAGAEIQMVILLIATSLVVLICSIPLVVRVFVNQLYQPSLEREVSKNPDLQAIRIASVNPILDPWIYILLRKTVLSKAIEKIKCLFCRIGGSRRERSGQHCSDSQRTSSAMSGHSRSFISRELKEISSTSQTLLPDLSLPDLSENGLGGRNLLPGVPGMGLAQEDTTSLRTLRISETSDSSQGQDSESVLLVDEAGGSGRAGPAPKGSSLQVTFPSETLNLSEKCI", "experiment": "NanoBRET screen HiBiT-PTGER4 in HEK293", "procedure": "as §1, §2"}, "HCRTR1": {"target": "T5, HCRTR1 (Homo sapiens, UniProt O43613)", "T5 construct": "purchased Promega (in-house HiBiT-GPCR construct library, NanoBRET)", "T5 sequence (O43613 1-425)": "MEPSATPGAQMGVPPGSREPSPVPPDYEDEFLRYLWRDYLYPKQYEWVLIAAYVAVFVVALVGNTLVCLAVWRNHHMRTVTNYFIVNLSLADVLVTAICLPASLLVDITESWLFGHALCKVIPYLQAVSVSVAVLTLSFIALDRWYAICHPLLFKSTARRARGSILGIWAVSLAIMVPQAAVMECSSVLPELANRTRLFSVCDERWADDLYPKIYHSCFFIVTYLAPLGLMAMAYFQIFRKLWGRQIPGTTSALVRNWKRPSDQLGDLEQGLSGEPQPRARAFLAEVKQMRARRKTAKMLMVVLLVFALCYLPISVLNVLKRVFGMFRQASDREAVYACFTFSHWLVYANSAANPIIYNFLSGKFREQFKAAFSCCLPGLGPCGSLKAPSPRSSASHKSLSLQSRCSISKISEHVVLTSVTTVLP", "experiment": "NanoBRET screen HiBiT-HCRTR1 in HEK293", "procedure": "as §1, §2"}}, "data": [{"smiles": "CN(CCC=C1c2ccccc2CCc2ccccc21)C(=O)CCOCCOCCOCCOCCNC(=O)CCc1ccc2n1[B-](F)(F)[N+]1=C(c3ccc[nH]3)C=CC1=C2", "note": "[Amitriptyline-e-2-NB590]", "values": [{"measurement": "NanoBRET Fold Response", "setting": "CXCR1; tracer at 1μM", "result": 0.93}, {"measurement": "NanoBRET Fold Response", "setting": "DRD5; tracer at 1μM", "result": 1.11}, {"measurement": "NanoBRET Fold Response", "setting": "AVPR2; tracer at 1μM", "result": 0.99}]}, {"smiles": "COc1ccc2c(n1)c(CCNC(C)=O)cn2CCNC(=O)CCc1ccc2n1[B-](F)(F)[N+]1=C(c3ccc[nH]3)C=CC1=C2", "note": "[Azamelatonin-1-NB590]", "values": [{"measurement": "NanoBRET Fold Response", "setting": "CXCR1; 0.1μM tracer", "result": 0.88}, {"measurement": "NanoBRET Fold Response", "setting": "CXCR1; 1μM tracer", "result": 1.15}, {"measurement": "NanoBRET Fold Response", "setting": "PTGER4; 0.1μM tracer", "result": 1.06}, {"measurement": "NanoBRET Fold Response", "setting": "PTGER4; 1μM tracer", "result": 0.96}, {"measurement": "NanoBRET Fold Response", "setting": "HCRTR1; 0.1μM tracer", "result": 0.93}, {"measurement": "NanoBRET Fold Response", "setting": "HCRTR1; 1μM tracer", "result": 0.84}, {"measurement": "NanoBRET Fold Response", "setting": "DRD5; 0.1μM tracer", "result": 0.97}, {"measurement": "NanoBRET Fold Response", "setting": "DRD5; 1μM tracer", "result": 0.96}, {"measurement": "NanoBRET Fold Response", "setting": "AVPR2; 0.1μM tracer", "result": 0.91}, {"measurement": "NanoBRET Fold Response", "setting": "AVPR2; 1μM tracer", "result": 1.01}]}, {"smiles": "COc1ccc2[nH]c(-c3ccc(CNC(=O)CCOCCOCCOCCOCCNC(=O)CCc4ccc5n4[B-](F)(F)[N+]4=C(c6ccc[nH]6)C=CC4=C5)cc3)c(CCNC(C)=O)c2n1", "note": "[AzomelatoninICO9-2-NB590]", "values": [{"measurement": "NanoBRET Fold Response", "setting": "CXCR1; 0.1μM tracer", "result": 1.06}, {"measurement": "NanoBRET Fold Response", "setting": "CXCR1; 1μM tracer", "result": 0.96}, {"measurement": "NanoBRET Fold Response", "setting": "PTGER4; 0.1μM tracer", "result": 0.97}, {"measurement": "NanoBRET Fold Response", "setting": "PTGER4; 1μM tracer", "result": 0.97}, {"measurement": "NanoBRET Fold Response", "setting": "HCRTR1; 0.1μM tracer", "result": 0.60}, {"measurement": "NanoBRET Fold Response", "setting": "HCRTR1; 1μM tracer", "result": 0.95}, {"measurement": "NanoBRET Fold Response", "setting": "DRD5; 0.1μM tracer", "result": 1.14}, {"measurement": "NanoBRET Fold Response", "setting": "DRD5; 1μM tracer", "result": 0.93}, {"measurement": "NanoBRET Fold Response", "setting": "AVPR2; 0.1μM tracer", "result": 0.84}, {"measurement": "NanoBRET Fold Response", "setting": "AVPR2; 1μM tracer", "result": 0.87}]}, {"smiles": "O=C(CCOCCOCCOCCOCCNC(=O)CCc1ccc2n1[B-](F)(F)[N+]1=C(c3ccc[nH]3)C=CC1=C2)NCCCN1CCN(C2=Nc3cc(Cl)ccc3Nc3ccccc32)CC1", "note": "[Clozapine-a-2-NB590]", "values": [{"measurement": "NanoBRET Fold Response", "setting": "CXCR1; CXCR1, 0.1μM tracer", "result": 0.99}, {"measurement": "NanoBRET Fold Response", "setting": "CXCR1; CXCR1, 1μM tracer", "result": 0.94}, {"measurement": "NanoBRET Fold Response", "setting": "PTGER4; PTGER4, 0.1μM tracer", "result": 1.02}, {"measurement": "NanoBRET Fold Response", "setting": "PTGER4; PTGER4, 1μM tracer", "result": 1.06}, {"measurement": "NanoBRET Fold Response", "setting": "HCRTR1; HCRTR1, 0.1μM tracer", "result": 0.89}, {"measurement": "NanoBRET Fold Response", "setting": "HCRTR1; HCRTR1, 1μM tracer", "result": 0.98}, {"measurement": "NanoBRET Fold Response", "setting": "DRD5; DRD5, 0.1μM tracer", "result": 2.41}, {"measurement": "NanoBRET Fold Response", "setting": "DRD5; DRD5, 1μM tracer", "result": 2.86}, {"measurement": "NanoBRET Fold Response", "setting": "AVPR2; AVPR2, 0.1μM tracer", "result": 1.03}, {"measurement": "NanoBRET Fold Response", "setting": "AVPR2; AVPR2, 1μM tracer", "result": 0.95}]}, {"smiles": "CN1CCN(C2=Nc3cc(Cl)ccc3Nc3ccc(CNC(=O)CCOCCOCCOCCOCCNC(=O)CCc4ccc5n4[B-](F)(F)[N+]4=C(c6ccc[nH]6)C=CC4=C5)cc32)CC1", "note": "[Clozapine-b-2-NB590]", "values": [{"measurement": "NanoBRET Fold Response", "setting": "CXCR1; CXCR1, 0.1μM tracer", "result": 1.00}, {"measurement": "NanoBRET Fold Response", "setting": "CXCR1; CXCR1, 1μM tracer", "result": 0.99}, {"measurement": "NanoBRET Fold Response", "setting": "PTGER4; PTGER4, 0.1μM tracer", "result": 1.03}, {"measurement": "NanoBRET Fold Response", "setting": "PTGER4; PTGER4, 1μM tracer", "result": 1.03}, {"measurement": "NanoBRET Fold Response", "setting": "HCRTR1; HCRTR1, 0.1μM tracer", "result": 1.04}, {"measurement": "NanoBRET Fold Response", "setting": "HCRTR1; HCRTR1, 1μM tracer", "result": 1.01}, {"measurement": "NanoBRET Fold Response", "setting": "DRD5; DRD5, 0.1μM tracer", "result": 1.01}, {"measurement": "NanoBRET Fold Response", "setting": "DRD5; DRD5, 1μM tracer", "result": 1.83}, {"measurement": "NanoBRET Fold Response", "setting": "AVPR2; AVPR2, 0.1μM tracer", "result": 1.05}, {"measurement": "NanoBRET Fold Response", "setting": "AVPR2; AVPR2, 1μM tracer", "result": 0.95}]}, {"smiles": "COc1ccccc1N1CCN(CCCCN2C(=O)c3ccc(CNC(=O)CCOCCOCCOCCOCCNC(=O)CCc4ccc5n4[B-](F)(F)[N+]4=C(c6ccc[nH]6)C=CC4=C5)cc3C2=O)CC1", "note": "[NAN-190-2-NB590]", "values": [{"measurement": "NanoBRET Fold Response", "setting": "CXCR1; CXCR1, tracer 0.1μM", "result": 0.97}, {"measurement": "NanoBRET Fold Response", "setting": "CXCR1; CXCR1, tracer 1μM", "result": 1.05}, {"measurement": "NanoBRET Fold Response", "setting": "PTGER4; PTGER4, tracer 0.1μM", "result": 1.02}, {"measurement": "NanoBRET Fold Response", "setting": "PTGER4; PTGER4, tracer 1μM", "result": 1.01}, {"measurement": "NanoBRET Fold Response", "setting": "DRD5; DRD5, tracer 0.1μM", "result": 1.02}, {"measurement": "NanoBRET Fold Response", "setting": "DRD5; DRD5, tracer 1μM", "result": 1.21}, {"measurement": "NanoBRET Fold Response", "setting": "AVPR2; AVPR2, tracer 0.1μM", "result": 1.00}, {"measurement": "NanoBRET Fold Response", "setting": "AVPR2; AVPR2, tracer 1μM", "result": 0.98}]}]}
